Source: ChEMBL document CHEMBL1127182, “DNA gyrase inhibitory and antibacterial activity of some flavones(1)” (Bioorg Med Chem Lett, 1993)
In brackets after ≈: the same amount, converted by molar mass. Several values for one entry are separate records, joined by “and”; a condition that tells them apart may be missing. Equal entries are not always repeated.

What was measured:
[1] = tested on: Staphylococcus epidermidis; assay: Tested for antibacterial activity as minimum inhibitory concentration against Staphylococcus epidermidis strain OC2603; assay type: functional
Escherichia coli [2] = assay: Tested for antibacterial activity as minimum inhibitory concentration against Escherichia coli-ss in the presence of polymyxin B nonapeptide (PBMN) at 1 ug/mL; assay type: functional
Escherichia coli [3] = assay: Tested for antibacterial activity as minimum inhibitory concentration against Escherichia coli KL-16 in the presence of polymyxin B nonapeptide (PBMN) at 1 ug/mL; assay type: functional
Escherichia coli [4] = assay: Tested for antibacterial activity as minimum inhibitory concentration against Escherichia coli KL-16 in the absence of polymyxin B nonapeptide (PBMN) at 0 ug/mL; assay type: functional
[5] = tested on: Stenotrophomonas maltophilia; assay: Tested for antibacterial activity as minimum inhibitory concentration against Pseudomonas maltophilia 1057 in the presence of polymyxin B nonapeptide (PBMN) at 0 ug/mL; assay type: functional
Escherichia coli [6] = assay: Tested for antibacterial activity as minimum inhibitory concentration against Escherichia coli-ss in the absence of polymyxin B nonapeptide (PBMN) at 0 ug/mL; assay type: functional
Salmonella typhimurium [7] = assay: Tested for antibacterial activity as minimum inhibitory concentration against Salmonella Typhimurium 701 in the absence of polymyxin B nonapeptide (PBMN) at 0 ug/mL; assay type: functional, Salmonella enterica subsp. enterica serovar Typhimurium; settings: Salmonella enterica
[8] = tested on: Stenotrophomonas maltophilia; assay: Tested for antibacterial activity as minimum inhibitory concentration against Pseudomonas maltophilia 1057 in the presence of polymyxin B nonapeptide (PBMN) at 1 ug/mL; assay type: functional
Salmonella typhimurium [9] = assay: Tested for antibacterial activity as minimum inhibitory concentration against Salmonella Typhimurium 701 in the presence of polymyxin B nonapeptide (PBMN) at 1 ug/mL; assay type: functional, Salmonella enterica subsp. enterica serovar Typhimurium
Staphylococcus aureus = assay: Tested for antibacterial activity as minimum inhibitory concentration against Staphylococcus aureus strain OC6538; assay type: functional
DNA gyrase = DNA gyrase (Escherichia coli, UniProt P0AES4+P0AES6); assay: In vitro antibacterial activity was determined as inhibitory concentration causing 50% DNA-gyrase supercoiling inhibition (SCI); assay type: protein-complex assay
[10] = Escherichia coli, read-out: MIC
[11] = Salmonella enterica, read-out: MIC
[12] = Staphylococcus aureus, read-out: MIC

Row | SMILES | MIC [1] [µg/mL] | MIC (Escherichia coli [2]; [10]) [µg/mL] | MIC (Escherichia coli [3]) [µg/mL] | MIC (Escherichia coli [4]) [µg/mL] | MIC [5] [µg/mL] | MIC (Escherichia coli [6]; [10]) [µg/mL] | MIC (Salmonella typhimurium [7]) [µg/mL] | MIC [8] [µg/mL] | MIC (Salmonella typhimurium [9]; [11]) [µg/mL] | MIC (Staphylococcus aureus; [12]) [µg/mL] | IC50 (DNA gyrase) | MIC (Salmonella typhimurium [9]; Salmonella enterica) [µg/mL] | MIC (Staphylococcus aureus) [µg/mL] | MIC (Escherichia coli [2]) [µg/mL] | MIC (Escherichia coli [6]) [µg/mL] | MIC (Salmonella typhimurium [9])
1 | CC1COc2c(N3CCN(C)CC3)c(F)cc3c(=O)c(C(=O)O)cn1c23 (stereo not given) [OFLOXACIN] | ≤ 0.5 | < 0.5 | < 0.015 | 0.0625 (≈ 0.173 µM) | 2 | < 0.5 | 0.125 (≈ 0.346 µM) | 1 | 0.0625 | ≤ 0.5 | – | – | – | – | – | –
2 | O=c1cc(-c2ccc(O)cc2)oc2cc(O)cc(O)c12 [APIGENIN] | > 125 | 7.8 | > 125 | > 125 | > 125 | > 125 | > 125 | > 125 | 15.6 | > 125 | 250 µM | – | – | – | – | –
3 | COc1cccc(-c2cc(=O)c3c(O)cc(O)cc3o2)c1 | > 125 | > 125 | > 125 | > 125 | > 125 | > 125 | > 125 | > 125 | > 125 | > 125 | > 1760 µM | – | – | – | – | –
4 | O=c1c(O)c(-c2cc(O)cc(O)c2)oc2cc(O)cc(O)c12 | 500 (≈ 1650 µM) | 3.9 | 31.2 | > 125 | > 125 | 125 (≈ 414 µM) | > 125 | > 125 | 7.8 | 500 (≈ 1650 µM) | 1380 µM | – | – | – | – | –
5 | O=c1c(O)c(-c2ccc(O)c(O)c2)oc2cc(O)ccc12 [FISETIN] | > 125 | 3.9 | 15.6 | > 125 | > 125 | 62.5 (≈ 218 µM) | > 125 | > 125 | 31.2 | > 125 | 291 µM | – | – | – | – | –
6 | CCn1cc(C(=O)O)c(=O)c2ccc(C)nc21 [NALIDIXIC ACID] | 250 (≈ 1080 µM) | 0.125 | 0.5 | 2 (≈ 8.61 µM) | 62.5 | 0.5 (≈ 2.15 µM) | 3.9 (≈ 16.8 µM) | 15.6 | 2 | 500 (≈ 2150 µM) | – | – | – | – | – | –
7 | COc1ccc(-c2oc3cc(O)cc(O)c3c(=O)c2O)cc1 [KAEMPFERIDE] | > 125 | > 125 | > 125 | > 125 | > 125 | > 125 | > 125 | > 125 | > 125 | > 125 | > 1670 µM | – | – | – | – | –
8 | O=c1cc(-c2ccccc2)oc2c(O)c(O)ccc12 [7,8-DIHYDROXYFLAVONE] | 31.2 (≈ 123 µM) | 7.8 | 62.5 | > 125 | > 125 | 125 (≈ 492 µM) | > 125 | 125 | – | – | 351 µM | 15.6 | 62.5 (≈ 246 µM) | – | – | –
9 | O=c1c(O)c(-c2cc(O)c(O)c(O)c2)oc2cc(O)cc(O)c12 [MYRICETIN] | 62.5 (≈ 196 µM) | 3.9 | 15.6 | > 125 | > 125 | 62.5 (≈ 196 µM) | > 125 | 125 | 15.6 | 125 (≈ 393 µM) | 707 µM | – | – | – | – | –
10 | COc1cc(-c2oc3cc(O)cc(O)c3c(=O)c2O)cc(OC)c1OC | > 125 | > 125 | > 125 | > 125 | > 125 | > 125 | > 125 | > 125 | > 125 | > 125 | > 1390 µM | – | – | – | – | –
11 | COc1cc2oc(-c3ccccc3)cc(=O)c2c(O)c1O | > 125 | > 125 | > 125 | > 125 | > 125 | > 125 | > 125 | > 125 | > 125 | > 125 | > 1760 µM | – | – | – | – | –
12 | O=c1cc(-c2ccccc2)oc2cc(O)cc(O)c12 [CHRYSIN] | > 125 | > 125 | > 125 | > 125 | > 125 | > 125 | > 125 | > 125 | > 125 | > 125 | > 1970 µM | – | – | – | – | –
13 | O=c1c(O)c(-c2ccccc2)oc2cc(O)cc(O)c12 [GALANGIN] | > 125 | > 125 | > 125 | > 125 | > 125 | > 125 | > 125 | > 125 | > 125 | > 125 | > 1850 µM | – | – | – | – | –
14 | O=c1oc2c(O)c(O)cc3c(=O)oc4c(O)c(O)cc1c4c23 [ELLAGIC ACID] | > 125 | 2 | 7.8 | > 125 | > 125 | > 125 | > 125 | > 125 | 31.2 | > 125 | 10.9 µM | – | – | – | – | –
15 | O=c1c(O)c(-c2ccc(O)c(O)c2)oc2cc(O)cc(O)c12 [QUERCETIN] | – | 2 | – | > 125 | > 125 | 62.5 (≈ 207 µM) | > 125 | > 125 | – | 62.5 (≈ 207 µM) | 182 µM and 156 µM | – | >125 | 1 | 31.25 (≈ 103 µM) | 15.6 µg/mL and 31.25 µg/mL
16 | O=c1c(O)c(-c2ccccc2)oc2ccccc12 [FLAVONOL] | > 125 | > 125 | > 125 | > 125 | > 125 | > 125 | > 125 | > 125 | > 125 | > 125 | > 2100 µM | – | – | – | – | –
